Source: patent US6787525B1, “Glyceryl nucleotides, method for the production thereof and their use” (priority 1998, dated 2004)

Columns and labels:
SR = experiment: In vitro cytostatic effect (SRB): SR, Leukemia
M14 = experiment: In vitro cytostatic effect (SRB): M14, Melanoma
K-562 = experiment: In vitro cytostatic effect (SRB): K-562, Leukemia
MOLT-4 = experiment: In vitro cytostatic effect (SRB): MOLT-4, Leukemia
EKVX = experiment: In vitro cytostatic effect (SRB): EKVX, Lung cancer
UACC-62 = experiment: In vitro cytostatic effect (SRB): UACC-62, Melanoma
LOX IMVI = experiment: In vitro cytostatic effect (SRB): LOX IMVI, Melanoma
MALME-3M = experiment: In vitro cytostatic effect (SRB): MALME-3M, Melanoma
HOP-62 = experiment: In vitro cytostatic effect (SRB): HOP-62, Lung cancer
SK-MEL-28 = experiment: In vitro cytostatic effect (SRB): SK-MEL-28, Melanoma
ACHN = experiment: In vitro cytostatic effect (SRB): ACHN, Kidney cancer
768-0 = experiment: In vitro cytostatic effect (SRB): 768-0, Kidney cancer
NCI-H460 = experiment: In vitro cytostatic effect (SRB): NCI-H460, Lung cancer
NCI-H522 = experiment: In vitro cytostatic effect (SRB): NCI-H522, Lung cancer
BT-549 = experiment: In vitro cytostatic effect (SRB): BT-549, Breast cancer
A549/ATCC = experiment: In vitro cytostatic effect (SRB): A549/ATCC, Lung cancer
RXF 393 = experiment: In vitro cytostatic effect (SRB): RXF 393, Kidney cancer
HT29 = experiment: In vitro cytostatic effect (SRB): HT29, Intestinal cancer
OVCAR-3 = experiment: In vitro cytostatic effect (SRB): OVCAR-3, Ovarian cancer
OVCAR-4 = experiment: In vitro cytostatic effect (SRB): OVCAR-4, Ovarian cancer
OVCAR-5 = experiment: In vitro cytostatic effect (SRB): OVCAR-5, Ovarian cancer
COLO205 = experiment: In vitro cytostatic effect (SRB): COLO205, Intestinal cancer
NCI/ADR-RES = experiment: In vitro cytostatic effect (SRB): NCI/ADR-RES, Breast cancer
U251 = experiment: In vitro cytostatic effect (SRB): U251, Cancer of the central nervous system
SF-268 = experiment: In vitro cytostatic effect (SRB): SF-268, Cancer of the central nervous system
SF-295 = experiment: In vitro cytostatic effect (SRB): SF-295, Cancer of the central nervous system
SF-539 = experiment: In vitro cytostatic effect (SRB): SF-539, Cancer of the central nervous system
SNB-75 = experiment: In vitro cytostatic effect (SRB): SNB-75, Cancer of the central nervous system
[1] = read-out: LC50, 48-hour incubation

Question: With `CCCCCCCCCCCCCCCCCCOC(COP(=O)(O)OCC1OC(n2cc(F)c(=O)[nH]c2=O)CC1O)COP(=O)(O)OCC1OC(n2ccc(N)nc2=O)C(O)C1O` (racemic) [NSC 698688-A/1, arabinocytidylyl-(5′→1)-2-O-octadecyl-rac-glycerylyl-(3→5′)-5-fluoro-2′-deoxyuridine] as the molecule, how does the TGI (SR; 48-hour incubation) read?
Answer: >1.00E − 04 mol/l

Question: And the CC50 (SR; [1])?
Answer: > 100 µM

Question: What about the GI50 (M14; 48-hour incubation) of the same molecule?
Answer: 3.53 µM

Question: And the TGI (M14; 48-hour incubation)?
Answer: 8.62E − 05 mol/l

Question: What about the CC50 (M14; [1]) of the same molecule?
Answer: > 100 µM

Question: And the GI50 (K-562; 48-hour incubation)?
Answer: 3.35 µM

Question: And the TGI (K-562; 48-hour incubation)?
Answer: >1.00E − 04 mol/l

Question: And the CC50 (K-562; [1])?
Answer: > 100 µM

Question: What about the GI50 (MOLT-4; 48-hour incubation) of the same molecule?
Answer: 0.467 µM

Question: And the TGI (MOLT-4; 48-hour incubation)?
Answer: >1.00E − 04 mol/l

Question: What about the CC50 (MOLT-4; [1]) of the same molecule?
Answer: > 100 µM

Question: What about the GI50 (EKVX; 48-hour incubation) of the same molecule?
Answer: > 100 µM

Question: What about the TGI (EKVX; 48-hour incubation) of the same molecule?
Answer: >1.00E − 04 mol/l

Question: What about the CC50 (EKVX; [1]) of the same molecule?
Answer: > 100 µM

Question: What about the GI50 (UACC-62; 48-hour incubation) of the same molecule?
Answer: 1.77 µM

Question: And the TGI (UACC-62; 48-hour incubation)?
Answer: >1.00E − 04 mol/l

Question: What about the CC50 (UACC-62; [1]) of the same molecule?
Answer: > 100 µM

Question: And the GI50 (LOX IMVI; 48-hour incubation)?
Answer: 1.4 µM

Question: What about the TGI (LOX IMVI; 48-hour incubation) of the same molecule?
Answer: >1.00E − 04 mol/l

Question: What about the CC50 (LOX IMVI; [1]) of the same molecule?
Answer: > 100 µM

Question: What about the GI50 (MALME-3M; 48-hour incubation) of the same molecule?
Answer: > 100 µM

Question: And the TGI (MALME-3M; 48-hour incubation)?
Answer: >1.00E − 04 mol/l

Question: And the CC50 (MALME-3M; [1])?
Answer: > 100 µM

Question: And the GI50 (HOP-62; 48-hour incubation)?
Answer: 0.699 µM

Question: And the TGI (HOP-62; 48-hour incubation)?
Answer: >1.00E − 04 mol/l

Question: And the CC50 (HOP-62; [1])?
Answer: > 100 µM

Question: What about the GI50 (SK-MEL-28; 48-hour incubation) of the same molecule?
Answer: 57.8 µM

Question: And the TGI (SK-MEL-28; 48-hour incubation)?
Answer: >1.00E − 04 mol/l

Question: And the CC50 (SK-MEL-28; [1])?
Answer: > 100 µM

Question: What about the GI50 (ACHN; 48-hour incubation) of the same molecule?
Answer: 0.466 µM

Question: What about the TGI (ACHN; 48-hour incubation) of the same molecule?
Answer: >1.00E − 04 mol/l

Question: And the CC50 (ACHN; [1])?
Answer: > 100 µM

Question: What about the GI50 (768-0; 48-hour incubation) of the same molecule?
Answer: 0.854 µM

Question: And the TGI (768-0; 48-hour incubation)?
Answer: 1.34E − 05 mol/l

Question: What about the CC50 (768-0; [1]) of the same molecule?
Answer: 44.4 µM

Question: What about the GI50 (NCI-H460; 48-hour incubation) of the same molecule?
Answer: 0.0466 µM

Question: What about the TGI (NCI-H460; 48-hour incubation) of the same molecule?
Answer: 2.79E − 05 mol/l

Question: What about the CC50 (NCI-H460; [1]) of the same molecule?
Answer: > 100 µM

Question: And the GI50 (NCI-H522; 48-hour incubation)?
Answer: 16.2 µM

Question: What about the TGI (NCI-H522; 48-hour incubation) of the same molecule?
Answer: >1.00E − 04 mol/l

Question: What about the CC50 (NCI-H522; [1]) of the same molecule?
Answer: > 100 µM

Question: And the GI50 (BT-549; 48-hour incubation)?
Answer: 14.5 µM

Question: What about the TGI (BT-549; 48-hour incubation) of the same molecule?
Answer: 8.69E − 05 mol/l

Question: And the CC50 (BT-549; [1])?
Answer: > 100 µM

Question: And the GI50 (A549/ATCC; 48-hour incubation)?
Answer: 0.346 µM

Question: And the TGI (A549/ATCC; 48-hour incubation)?
Answer: >1.00E − 04 mol/l

Question: What about the CC50 (A549/ATCC; [1]) of the same molecule?
Answer: > 100 µM

Question: And the GI50 (RXF 393; 48-hour incubation)?
Answer: 10.2 µM

Question: What about the TGI (RXF 393; 48-hour incubation) of the same molecule?
Answer: 2.86E − 05 mol/l

Question: And the CC50 (RXF 393; [1])?
Answer: 80 µM

Question: What about the GI50 (HT29; 48-hour incubation) of the same molecule?
Answer: 12.5 µM

Question: And the TGI (HT29; 48-hour incubation)?
Answer: >1.00E − 04 mol/l

Question: What about the CC50 (HT29; [1]) of the same molecule?
Answer: > 100 µM

Question: And the GI50 (OVCAR-3; 48-hour incubation)?
Answer: > 100 µM

Question: And the TGI (OVCAR-3; 48-hour incubation)?
Answer: >1.00E − 04 mol/l

Question: And the CC50 (OVCAR-3; [1])?
Answer: > 100 µM

Question: What about the GI50 (OVCAR-4; 48-hour incubation) of the same molecule?
Answer: 58.5 µM

Question: And the TGI (OVCAR-4; 48-hour incubation)?
Answer: >1.00E − 04 mol/l

Question: And the CC50 (OVCAR-4; [1])?
Answer: > 100 µM

Question: And the GI50 (OVCAR-5; 48-hour incubation)?
Answer: 89.6 µM

Question: And the TGI (OVCAR-5; 48-hour incubation)?
Answer: >1.00E − 04 mol/l

Question: What about the CC50 (OVCAR-5; [1]) of the same molecule?
Answer: > 100 µM

Question: What about the GI50 (COLO205; 48-hour incubation) of the same molecule?
Answer: 10.5 µM

Question: And the TGI (COLO205; 48-hour incubation)?
Answer: 3.88E − 05 mol/l

Question: What about the CC50 (COLO205; [1]) of the same molecule?
Answer: > 100 µM

Question: And the TGI (NCI/ADR-RES; 48-hour incubation)?
Answer: >1.00E − 04 mol/l

Question: What about the CC50 (NCI/ADR-RES; [1]) of the same molecule?
Answer: > 100 µM

Question: And the GI50 (U251; 48-hour incubation)?
Answer: 3.14 µM

Question: What about the TGI (U251; 48-hour incubation) of the same molecule?
Answer: 2.48E − 05 mol/l

Question: And the CC50 (U251; [1])?
Answer: 73.8 µM

Question: What about the GI50 (SF-268; 48-hour incubation) of the same molecule?
Answer: 0.745 µM

Question: What about the TGI (SF-268; 48-hour incubation) of the same molecule?
Answer: >1.00E − 04 mol/l

Question: And the CC50 (SF-268; [1])?
Answer: > 100 µM

Question: And the GI50 (SF-295; 48-hour incubation)?
Answer: 0.799 µM

Question: What about the TGI (SF-295; 48-hour incubation) of the same molecule?
Answer: >1.00E − 04 mol/l

Question: What about the CC50 (SF-295; [1]) of the same molecule?
Answer: > 100 µM

Question: And the GI50 (SF-539; 48-hour incubation)?
Answer: 0.488 µM

Question: And the TGI (SF-539; 48-hour incubation)?
Answer: 1.03E − 05 mol/l

Question: What about the CC50 (SF-539; [1]) of the same molecule?
Answer: 80.3 µM

Question: What about the GI50 (SNB-75; 48-hour incubation) of the same molecule?
Answer: 20.4 µM

Question: And the TGI (SNB-75; 48-hour incubation)?
Answer: >1.00E − 04 mol/l

Question: What about the CC50 (SNB-75; [1]) of the same molecule?
Answer: > 100 µM
